For one test, the system named is GH release. Put plainly: In vivo GH release after subcutaneous administration. The note with it: rat, s.c. How it is done: Blood samples are taken from the jugular vein; 5, 15 and 30 minutes or only 15 and 30 minutes after the injection. The blood samples are centrifuged, plasma is removed and the GH level is measured by ELISA. The results are summarized in terms of potency in Table 9.

For a further test, the target named is T1, GHRH receptor (Homo sapiens, UniProt Q02643).
T1 construct: Normal human pituitaries were purchased from the National Hormone and Peptide Program; tissue National Hormone and Peptide Program (A. F. Parlow); host or cells: normal human pituitary, membrane fraction
T1 sequence (Q02643 23-423): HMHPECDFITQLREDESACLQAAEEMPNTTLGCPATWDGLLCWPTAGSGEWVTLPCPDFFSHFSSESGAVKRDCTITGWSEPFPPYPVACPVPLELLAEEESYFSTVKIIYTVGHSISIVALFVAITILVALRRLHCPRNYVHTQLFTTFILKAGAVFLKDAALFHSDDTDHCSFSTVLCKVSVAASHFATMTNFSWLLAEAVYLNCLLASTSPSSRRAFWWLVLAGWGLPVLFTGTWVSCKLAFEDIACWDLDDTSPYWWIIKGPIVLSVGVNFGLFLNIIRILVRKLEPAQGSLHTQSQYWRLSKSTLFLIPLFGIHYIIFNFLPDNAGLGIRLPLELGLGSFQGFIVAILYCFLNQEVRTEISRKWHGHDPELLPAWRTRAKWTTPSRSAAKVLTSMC
The experiment in a line: GHRH receptor binding, 125I-labeled JV-1-42 ligand competition, human pituitary membrane homogenates (Table 7). The note with it: for IC50: 125I-labeled JV-1-42, human pituitary membranes. On the procedure:
Preparation of human pituitary membrane fraction and receptor binding of GHRH agonists were performed as previously described, by using a sensitive in vitro ligand competition assay based on binding of ^125I-labeled JV-1-42 to human pituitary membrane homogenates. Normal human pituitaries were purchased from the National Hormone and Peptide Program (A. F. Parlow, Los Angeles, County Harbor-UCLA Medical Center, Torrance, Calif.).

As a reminder, the IC50 is the midpoint of a concentration-inhibition curve. The low end stands for higher potency, the high end for lower potency.

Entries after “also recorded” stand apart in the source; their conditions may differ. Square brackets hold non-standard residues; d marks the D form. Peptide text beside a SMILES is read from it. * marks the point of attachment. Phe(F5) = N[C@@H](Cc1c(F)c(F)c(F)c(F)c1F)C(=O)O; Desaminotyrosyl = O=C(CCc1ccc(O)cc1)*; NMeY = CN[C@@H](Cc1ccc(O)cc1)C(=O)O; Agmatine = N=C(N)NCCCCN*; Nle = CCCC[C@H](N)C(=O)O; Orn = NCCC[C@H](N)C(=O)O; Abu = CC[C@H](N)C(=O)O; Ava = NCCCCC(=O)O; GABA = NCCCC(=O)O

In the case of `CCCC[C@H](NC(=O)[C@@H](NC(=O)[C@H](CC(=O)O)NC(=O)[C@H](CCC(N)=O)NC(=O)[C@H](CC(C)C)NC(=O)[C@H](CC(C)C)NC(=O)[C@H](CCCN)NC(=O)[C@H](CCCNC(=N)N)NC(=O)[C@H](C)NC(=O)[C@H](CO)NC(=O)[C@H](CC(C)C)NC(=O)[C@H](CCC(N)=O)NC(=O)[C@H](CC)NC(=O)[C@H](CC(C)C)NC(=O)[C@@H](NC(=O)[C@H](CCCN)NC(=O)[C@H](CCCNC(=N)N)NC(=O)[C@H](Cc1ccc(O)cc1)NC(=O)[C@H](CO)NC(=O)[C@H](CCC(N)=O)NC(=O)[C@@H](NC(=O)[C@H](Cc1ccccc1)NC(=O)[C@@H](NC(=O)[C@H](C)NC(=O)[C@H](CC(=O)O)NC(=O)[C@@H](C)NC(=O)CCc1ccc(O)cc1)[C@@H](C)CC)[C@@H](C)O)C(C)C)[C@@H](C)CC)C(=O)N[C@@H](CC(=O)O)C(=O)NCCCCNC(=N)N` [Peptide P-20350, [Dat^1, D-Ala^2, Gln^8, Orn^12, Abu^15, Orn^21, Nle^27, Asp^28, Agm^29]hGH-RH(1-29)] (Desaminotyrosyl-[dA]DAIFTQSYR[Orn]VL[Abu]QLSAR[Orn]LLQDI[Nle]D-Agmatine), the “GH response after subcutaneous administration (in words)” value (“GH response” below) in the test with GH release was “unusually high responses; also recorded: especially greater growth hormone levels than hGH-RH or JI-38”. For the molecule `CCCC[C@H](NC(=O)[C@@H](NC(=O)[C@H](CC(=O)O)NC(=O)[C@H](CCC(N)=O)NC(=O)[C@H](CC(C)C)NC(=O)[C@H](CC(C)C)NC(=O)[C@H](CCCN)NC(=O)[C@H](CCCNC(=N)N)NC(=O)[C@H](C)NC(=O)[C@H](CO)NC(=O)[C@H](CC(C)C)NC(=O)[C@H](CCC(N)=O)NC(=O)[C@H](CC)NC(=O)[C@H](CC(C)C)NC(=O)[C@@H](NC(=O)[C@H](CCCN)NC(=O)[C@H](CCCNC(=N)N)NC(=O)[C@H](Cc1ccc(O)cc1)NC(=O)[C@H](CO)NC(=O)[C@H](CCC(N)=O)NC(=O)[C@@H](NC(=O)[C@H](Cc1ccccc1)NC(=O)[C@@H](NC(=O)[C@H](C)NC(=O)[C@H](CC(=O)O)NC(=O)[C@@H](C)NC(=O)[C@H](Cc1ccc(O)cc1)NC)[C@@H](C)CC)[C@@H](C)O)C(C)C)[C@@H](C)CC)C(=O)N[C@@H](CC(=O)O)C(=O)N[C@@H](CCCNC(=N)N)C(=O)NCCCCC(N)=O` [Peptide P-22326, [N—Me-Tyr^1, D-Ala^2, Gln^8, Orn^12, Abu^15, Orn^21, Nle^27, Asp^28, Apa^30]hGH-RH(1-30)NH2] (H-[NMeY][dA]DAIFTQSYR[Orn]VL[Abu]QLSAR[Orn]LLQDI[Nle]DR[Ava]-NH2), the IC50 at GHRH receptor was found to be 0.71 nM. Also, the “GH response” value with GH release is “unusually high responses; also recorded: especially greater growth hormone levels than hGH-RH or JI-38”. For the molecule `CCCC[C@H](NC(=O)[C@@H](NC(=O)[C@H](CC(=O)O)NC(=O)[C@H](CCC(N)=O)NC(=O)[C@H](CC(C)C)NC(=O)[C@H](CC(C)C)NC(=O)[C@H](CCCN)NC(=O)[C@H](CCCNC(=N)N)NC(=O)[C@H](C)NC(=O)[C@H](CO)NC(=O)[C@H](CC(C)C)NC(=O)[C@H](CCC(N)=O)NC(=O)[C@H](CC)NC(=O)[C@H](CC(C)C)NC(=O)[C@@H](NC(=O)[C@H](CCCN)NC(=O)[C@H](CCCNC(=N)N)NC(=O)[C@H](Cc1ccc(O)cc1)NC(=O)[C@H](CO)NC(=O)[C@H](CC(N)=O)NC(=O)[C@@H](NC(=O)[C@H](Cc1ccccc1)NC(=O)[C@@H](NC(=O)[C@H](C)NC(=O)[C@H](CC(=O)O)NC(=O)[C@@H](C)NC(=O)[C@H](Cc1ccc(O)cc1)NC)[C@@H](C)CC)[C@@H](C)O)C(C)C)[C@@H](C)CC)C(=O)N[C@@H](CO)C(=O)N[C@@H](CCCNC(=N)N)C(=O)NCCCC(N)=O` [Peptide P-25501, [N—Me-Tyr^1, D-Ala^2, Orn^12, Abu^15, Orn^21, Nle^27, Gab^30]hGH-RH(1-30)NH2] (H-[NMeY][dA]DAIFTNSYR[Orn]VL[Abu]QLSAR[Orn]LLQDI[Nle]SR[GABA]-NH2), the IC50 at GHRH receptor was found to be 1.07 nM. The “GH response” value in the test with GH release is “unusually high responses; also recorded: especially greater growth hormone levels than hGH-RH or JI-38”. Molecule `CCCC[C@H](NC(=O)[C@@H](NC(=O)[C@H](CC(=O)O)NC(=O)[C@H](CCC(N)=O)NC(=O)[C@H](CC(C)C)NC(=O)[C@H](CC(C)C)NC(=O)[C@H](CCCN)NC(=O)[C@H](CCCNC(=N)N)NC(=O)[C@H](C)NC(=O)[C@H](CO)NC(=O)[C@H](CC(C)C)NC(=O)[C@H](CCC(N)=O)NC(=O)[C@H](CC)NC(=O)[C@H](CC(C)C)NC(=O)[C@@H](NC(=O)[C@H](CCCN)NC(=O)[C@H](CCCNC(=N)N)NC(=O)[C@H](Cc1ccc(O)cc1)NC(=O)[C@H](CO)NC(=O)[C@H](CC(N)=O)NC(=O)[C@@H](NC(=O)[C@H](Cc1c(F)c(F)c(F)c(F)c1F)NC(=O)[C@@H](NC(=O)[C@H](C)NC(=O)[C@H](CC(=O)O)NC(=O)[C@@H](C)NC(=O)[C@H](Cc1ccc(O)cc1)NC)[C@@H](C)CC)[C@@H](C)O)C(C)C)[C@@H](C)CC)C(=O)N[C@@H](CC(=O)O)C(=O)N[C@@H](CCCNC(=N)N)C(=O)NC` [Peptide P-27404, [N—Me-Tyr^1, D-Ala^2, Fpa5^6, Orn^12, Abu^15, Orn^21, Nle^27, Asp^28]hGH-RH(1-29)NH—CH3] (H-[NMeY][dA]DAI[Phe(F5)]TNSYR[Orn]VL[Abu]QLSAR[Orn]LLQDI[Nle]DR-NHMe) came in with an IC50 at GHRH receptor of 0.87 nM. In addition, at GHRH receptor (relative to JI-38 = 1), the “Relative affinity (Binding potency) vs JI-38” value came out at 5.00. Besides, the “GH response” value in the test with GH release is on record as “unusually high responses; also recorded: especially greater growth hormone levels than hGH-RH or JI-38”. The molecule `CCCC[C@H](NC(=O)[C@@H](NC(=O)[C@H](CC(=O)O)NC(=O)[C@H](CCC(N)=O)NC(=O)[C@H](CC(C)C)NC(=O)[C@H](CC(C)C)NC(=O)[C@H](CCCN)NC(=O)[C@H](CCCNC(=N)N)NC(=O)[C@H](C)NC(=O)[C@H](CO)NC(=O)[C@H](CC(C)C)NC(=O)[C@H](CCC(N)=O)NC(=O)[C@H](CC)NC(=O)[C@H](CC(C)C)NC(=O)[C@@H](NC(=O)[C@H](CCCN)NC(=O)[C@H](CCCNC(=N)N)NC(=O)[C@H](Cc1ccc(O)cc1)NC(=O)[C@H](CO)NC(=O)[C@H](CC(N)=O)NC(=O)[C@@H](NC(=O)[C@H](Cc1ccccc1)NC(=O)[C@@H](NC(=O)[C@H](C)NC(=O)[C@H](CC(=O)O)NC(=O)[C@@H](C)NC(=O)[C@H](Cc1ccc(O)cc1)NC)[C@@H](C)CC)[C@@H](C)O)C(C)C)[C@@H](C)CC)C(=O)N[C@@H](CC(=O)O)C(=O)N[C@@H](CCCNC(=N)N)C(=O)NC` [Peptide P-27409, [N—Me-Tyr^1, D-Ala^2, Orn^12, Abu^15, Orn^21, Nle^27, Asp^28]hGH-RH(1-29)NH—CH3] (H-[NMeY][dA]DAIFTNSYR[Orn]VL[Abu]QLSAR[Orn]LLQDI[Nle]DR-NHMe) had an IC50 at GHRH receptor of 1.06 nM. Further, the “GH response” value in the test with GH release is listed as “unusually high responses; also recorded: especially greater growth hormone levels than hGH-RH or JI-38”.

The molecule `CCCC[C@H](NC(=O)[C@@H](NC(=O)[C@H](CC(=O)O)NC(=O)[C@H](CCC(N)=O)NC(=O)[C@H](CC(C)C)NC(=O)[C@H](CC(C)C)NC(=O)[C@H](CCCN)NC(=O)[C@H](CCCNC(=N)N)NC(=O)[C@H](C)NC(=O)[C@H](CO)NC(=O)[C@H](CC(C)C)NC(=O)[C@H](CCC(N)=O)NC(=O)[C@H](CC)NC(=O)[C@H](CC(C)C)NC(=O)[C@@H](NC(=O)[C@H](CCCN)NC(=O)[C@H](CCCNC(=N)N)NC(=O)[C@H](Cc1ccc(O)cc1)NC(=O)[C@H](CO)NC(=O)[C@H](CC(N)=O)NC(=O)[C@@H](NC(=O)[C@H](Cc1ccccc1)NC(=O)[C@@H](NC(=O)[C@H](C)NC(=O)[C@H](CC(=O)O)NC(=O)[C@@H](C)NC(=O)[C@H](Cc1ccc(O)cc1)NC)[C@@H](C)CC)[C@@H](C)O)C(C)C)[C@@H](C)CC)C(=O)N[C@@H](CC(=O)O)C(=O)N[C@@H](CCCNC(=N)N)C(=O)NCC` [Peptide P-28421, [N—Me-Tyr^1, D-Ala^2, Orn^12, Abu^15, Orn^21, Nle^27, Asp^28]hGH-RH(1-29)NH—CH2—CH3] (H-[NMeY][dA]DAIFTNSYR[Orn]VL[Abu]QLSAR[Orn]LLQDI[Nle]DR-NHEt) displayed a half-inhibitory concentration (IC50) at GHRH receptor of 1.47 nM.

Take `CCCC[C@H](NC(=O)[C@@H](NC(=O)[C@H](CC(=O)O)NC(=O)[C@H](CCC(N)=O)NC(=O)[C@H](CC(C)C)NC(=O)[C@H](CC(C)C)NC(=O)[C@H](CCCN)NC(=O)[C@H](CCCNC(=N)N)NC(=O)[C@H](C)NC(=O)[C@H](CO)NC(=O)[C@H](CC(C)C)NC(=O)[C@H](CCC(N)=O)NC(=O)[C@H](CC)NC(=O)[C@H](CC(C)C)NC(=O)[C@@H](NC(=O)[C@H](CCCN)NC(=O)[C@H](CCCNC(=N)N)NC(=O)[C@H](Cc1ccc(O)cc1)NC(=O)[C@H](CO)NC(=O)[C@H](CC(N)=O)NC(=O)[C@@H](NC(=O)[C@H](Cc1ccccc1)NC(=O)[C@@H](NC(=O)[C@H](C)NC(=O)[C@H](CC(=O)O)NC(=O)[C@@H](C)NC(=O)CCc1ccc(O)cc1)[C@@H](C)CC)[C@@H](C)O)C(C)C)[C@@H](C)CC)C(=O)N[C@@H](CO)C(=O)N[C@@H](CCCNC(=N)N)C(=O)N[C@@H](CCC(N)=O)C(=O)NCCCC(N)=O` [Peptide P-29702, [Dat^1, D-Ala^2, Orn^12, Abu^15, Orn^21, Nle^27, Gln-Gab^30]hGH-RH(1-30)NH2] (Desaminotyrosyl-[dA]DAIFTNSYR[Orn]VL[Abu]QLSAR[Orn]LLQDI[Nle]SRQ[GABA]-NH2): the IC50 on GHRH receptor stood at 0.86 nM.

The values above are taken from US9079974B2, “GH-RH analogs with potent agonistic effects” (The University of Miami, priority 2011, dated 2015).
